From patent publication US7807422B2, “Production of flavonoids by recombinant microorganisms” (The Research Foundation of State University of New York, priority 2004, dated 2010) come the findings set out here.

Assay [1] deals with flavanone biosynthesis in recombinant yeast strain INV-4G. Put plainly: Naringenin production from coumaric acid by INV-4G in the presence of apigenin (feedback inhibition). Type of assay: cell-based, S. cerevisiae. The source says: Heterologous expression and fermentation. In order to assemble the two different flavone biosynthetic pathways, recombinant INVSc1 carrying plasmid Ycc4c181G was transformed with YC-FSI, YC-FSII or YC-FSII+CPR1 separately, yielding recombinant strains INV-4G+FSI, INV-4G+FSII, and INV-4G+FSII+CPR1. Yeast colonies harboring both plasmids were selected upon growth on SC agar plates lacking leucine and tryptophan (SC-Leu-Trp-). For flavone fermentation purposes, an individual recombinant yeast colony was grown overnight in 10-mL liquid SC-Leu-Trp-containing glucose at 30° C. with shaking. The following day, a portion of this culture was used to seed the main culture of SC-Leu-Trp-containing galactose and raffinose or MA-Leu-Trp-containing galactose and acetate to an Ab600 of 0.4. 0.5 mM of phenylpropanoid acid (cinnamic acid, p-coumaric acid, caffeic acid, ferulic acid) was then added to the main culture, and incubation was carried out at 30° C. with horizontal shaking for a maximum of 92 hours.
Considering that INV-4G+FSI produced more apigenin than INV-4G+FSII+CPR1, we tested the possibility that flavanone biosynthesis is feedback—inhibited by apigenin. For this purpose, recombinant yeast strain carrying only the four flavanone biosynthetic genes (INV-4G) was created by simultaneously inserting YP-4G and empty YCplac22 plasmid. INV-4G was then tested for the ability to generate naringenin from coumaric acid, in the presence of apigenin. […] In the presence of 1 mg/L apigenin, the production of naringenin at stationary phase was reduced by 14%.

Another assay deals with E. coli BL21 Star. In words: Effect of phenylpropanoid acids on E. coli growth (growth curves). Type of assay: cell-based. As to conditions: 2 mM p-coumaric acid, M9 rich medium. As for the experimental part: Growth Curves. In order to investigate the effect of Phenylpropanoid acids on E. coli growth, E. coli BL21 Star was inoculated in 3 ml M9 liquid minimum medium and was left to grow at 37° C. overnight (preinoculum). The following day, 1 ml from the preinoculum was transferred to either 50 ml M9 minimal or Luria-Bertani (LB) rich liquid medium and p-coumaric acid, caffeic acid or cinnamic acid were added in the culture at different final concentrations (0 mM, 0.2 mM, 0.5 mM, 1 mM and 2 mM). Cell growth was monitored by measuring the absorbance at 600 nm (A600).
Phenylpropanoid acids reduce E. coli growth. We tested the effect of both p-coumaric acid and cinnamic acid on E. coli growth by incubating BL21 Star in M9 minimum medium and LB rich medium in the presence of different concentration of these compounds (0 mM, 0.05 mM, 0.1 mM, 0.15 mM, 0.2 mM, 1 mM, and 2 mM). […] For example, in the case of p-coumaric acid in […], the growth rate dropped from 0.28 h^−1 (control, 0 mM) to 0.18 h^−1 (2 mM). Similarly, for cinnamic acid the growth rate dropped from 0.27 h^−1 (control, 0 mM) to 0.17 h^−1 (2 mM) in M9 minimal medium.

Another assay deals with A. andraeanum DFR. In words: Biotransformation assay of flavanones with recombinant E. coli harboring Anthurium DFR (flavanone reductase activity). The following applies: substrate 0.4 mg/mL, 30° C., 24 hours, HPLC. The format is cell-based, Anthurium andraeanum.
Assay [2] has as its system Recombinant DFR L. hybrid. Put plainly: In vitro DFR/FNR enzymatic reaction, TLC analysis. The format is biochemical, Lilium hybrid. As to conditions: compound as substrate; pH 6.5, 30° C. As for the experimental part: (§1) Vector pTrcHis2-TOPO, either empty (control) or harboring the various cDNA sequences, was transformed into E. coli strain TOP10F′ (Invitrogen). Individual colonies were grown overnight in 3-mL Luria-Broth (LB) cultures with 100 μg/mL Ampicillin. The seed culture was used the following day to start a 50-mL main culture with an initial absorbance at 600 nm (A600) of 0.05. The main culture was left to grow at 37° C. until A600 reached 0.5-0.8. At that point, the inducer IPTG (isopropyl β-thiogalactoside) at a final concentration of 2 mM was added and the culture was left to grow for 4 hours at 30° C. Cells were harvested by centrifugation, resuspended in 5 mL of buffer (0.1 M K2HPO4/KH2PO4, pH 6.5), and lysed by either sonication or glass beads.
(§2) In vitro DFR and FNR enzymatic reactions were performed using 186 Bq of radiolabeled substrate and incubation was performed at 30° C. for 30 min−1 hour for DFR tests, and 30 min−2.5 hours for FNR tests. Ethyl acetate extraction was performed (twice) at the end of the incubation period, with 100 μL ethyl acetate. The organic phase was analyzed on a precoated TLC cellulose plate (Merck, Germany). The products, leucoanthocyanins and flavan-4-ols were separated from the respective substrates, dihydroflavonols and flavanones by chromatography in chloroform:acetic acid:water (10:9:1) system. The detection and quantification of radioactivity was performed using Fuji BAS1000 Bio-Imaging Analyzer. Protein content was determined using Lowry procedure with crystalline BSA as a standard. In vitro reaction products were identified by a previously published Rf values from in vitro reactions using heterologously expressed DFR proteins from Malus domestica (Punyasiri, et al., 2004, Arch. Biochem. Biophys., 431:22-30). Using TLC chromatography with chloroform:acetic acid:water (10:9:1), the Rf(×100) values for various flavonoids are DHK: 68; DHQ: 35; DHM: 11; NAR: 93; ERI: 61; LPg: 18; LCy: 8; LDp: 14; Apf: 45; Ltf: 18.
(§3) The in vitro reactions were performed using the optimal conditions (pH 6.5, 30° C.). […] No products were formed when using crude extract from E. coli harboring empty vector. DHQ and DHM were accepted as substrates by all seven recombinant enzymes, however, only the recombinant DFR enzymes derived from A. andraeanum, A. thaliana, I. nil, R. hybrida, and F. ananassa were able to catalyze the formation of LPg (Table 18). […] In addition, no LPg could be detected in assays using DFR from I. purpurea and L. hybrid even when the reaction period was extended and the amount of protein was increased up to 100 μg. In all cases, substrate specificity appeared to be independent of temperature or pH changes.

The subject of assay [3] is Recombinant DFR R. hybrida. Put plainly: In vitro DFR/FNR enzymatic reaction, TLC analysis. Type of assay: biochemical, Rosa hybrida. The following applies: compound as substrate; pH 6.5, 30° C. The procedure:
as §1, §2, §3

In assay [4] the test system is Recombinant DFR F. ananassa. In words: In vitro DFR/FNR enzymatic reaction, TLC analysis. The following applies: compound as substrate; pH 6.5, 30° C. Type of assay: biochemical, Fragaria ananassa. As for the experimental part:
as §1, §2, §3

For assay [5], the system named is E. coli JM109 carrying plasmid pK184. In words: Effect of naringenin on E. coli growth. Type of assay: cell-based. The procedure: E. coli shake-flask experiments. The identification of compounds produced from recombinant E. coli strain JM109 carrying plasmid pDGFA184 was done in a similar way to what has already been described in the literature Hwang et al., 2003, Appl. Environ Microbiol., 69:2699-2706). More specifically, 3 ml of Luria-Broth rich medium containing 50 ug/ml kanamycin was inoculated with the recombinant strain and was incubated at 37° C. with vigorous shaking. The next day, 200 ml of LB containing 50 μg/ml kanamycin was inoculated with 1 ml of overnight culture and the culture was incubated at 37° C. with vigorous shaking at 300 rpm to an OD600 of approximately 0.6. Next, the inducer IPTG was added to the culture to a final concentration of 1 mM. In order to avoid the formation of inclusion bodies, after the addition of the inducer the culture was incubated at room temperature with vigorous shaking overnight. Next day the cells were harvested by centrifugation and washed twice with M9 minimal medium. The pellets were then resuspended in 200 ml M9 minimal medium containing 50 μg/ml kanamycin, 1 mM IPTG and various concentrations of naringenin. In order to measure growth curves, the cultures were left to grow at room temperature with vigorous shaking until late stationary phase was reached. For flavonoid extraction experiments, the cultures were left to grow at room temperature for 65 h, again with horizontal vigorous shaking.
We tested the effect of naringenin on E. coli growth by incubating cultures of JM109 carrying plasmid pK184 in M9 minimal medium (50 μg/ml kanamycin) in the presence of different concentrations of naringenin (0.1 mM, 0.3 mM, 0.5 mM and 1 mM).

The test system of the next assay is Recombinant DFR I. nil. Put plainly: In vitro DFR/FNR enzymatic reaction, TLC analysis. The format is biochemical, Ipomoea nil. As to conditions: compound as substrate; pH 6.5, 30° C. As for the experimental part: as §1, §2, §3
Assay [6] concerns the target T1, Recombinant DFR A. thaliana (Arabidopsis thaliana, UniProt P51102).
T1 construct: We amplified full-length cDNA of various plant DFR open reading frames by PCR and RT-PCR; made in house; host or cells: E. coli TOP10F′ (crude lysate)
T1 sequence (P51102 1-382): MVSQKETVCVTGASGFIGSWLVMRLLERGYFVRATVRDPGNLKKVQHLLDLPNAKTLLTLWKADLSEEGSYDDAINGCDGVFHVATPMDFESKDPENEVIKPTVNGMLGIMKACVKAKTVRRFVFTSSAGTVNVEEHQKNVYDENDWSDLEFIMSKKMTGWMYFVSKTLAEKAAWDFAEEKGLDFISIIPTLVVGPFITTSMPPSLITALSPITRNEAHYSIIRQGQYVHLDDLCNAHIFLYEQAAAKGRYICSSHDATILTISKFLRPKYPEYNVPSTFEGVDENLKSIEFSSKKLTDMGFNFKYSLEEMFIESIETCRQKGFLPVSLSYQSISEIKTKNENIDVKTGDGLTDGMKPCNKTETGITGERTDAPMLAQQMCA
In words: In vitro DFR/FNR enzymatic reaction, TLC analysis. The format is biochemical. As to conditions: compound as substrate; pH 6.5, 30° C. As for the experimental part:
as §1, §2, §3

For assay [7], the system named is Recombinant DFR I. purpurea. Put plainly: In vitro DFR/FNR enzymatic reaction, TLC analysis. Type of assay: biochemical, Ipomoea purpurea. The following applies: compound as substrate; pH 6.5, 30° C. The procedure: as §1, §2, §3
The test system of assay [8] is Recombinant DFR A. andraeanum. Put plainly: In vitro DFR/FNR enzymatic reaction, TLC analysis. Type of assay: biochemical, Anthurium andraeanum. The following applies: compound as substrate; pH 6.5, 30° C. As for the experimental part: as §1, §2, §3

Description for A. andraeanum DFR: Seed cultures of recombinant E. coli harboring Anthurium DFR were grown in LB with 100 μg/mL ampicillin. After 24 hours, the preinoculum was used to seed a 50-mL main culture which was incubated at 37° C. until A600 reached 0.5. IPTG and flavanone substrates were added at a final concentration of 2 mM and 0.4 mg/mL respectively, and incubation proceeded at 30° C. for 24 hours before harvesting. Flavonoid products in the culture supernatant were extracted twice with an equal volume of ethyl acetate. The organic solvent was collected and evaporated using a rotary evaporator, and the residue was dissolved in water.
The products were analyzed by HPLC using an Agilent HPLC 1100 series instrument with a diode array detector. HPLC was carried out using a reverse phase ZORBAX SB-C18 column (diameter 4.6 mm×150 mm) using an acetonitrile (solvent A) and water (solvent B) gradient at a flow rate of 1 ml/min. The HPLC program conditions used were as follows: 10% to 40% A (0-10 min), 40% to 60% A (10-15 min), 60% A (15-20 min). Absorbance at 280 nm was monitored in all cases. […] The UV maximum for the various flavan-4-ols synthesized were: 276 nm for 2,4-cis-flavan-4-ol; 275 nm for 2,4-trans-flavan-4-ol; 281 nm for 2,4-cis-7-hydroxyflavan-4-ol; and 279 nm for 2,4-trans-7-hydroxyflavan-4-ol.
Besides NAR and ERI, four other commercially available flavanones were tested as substrates using the recombinant A. andraeanum DFR enzyme. The biotransformation assay was chosen for that purpose, since these flavanones cannot be synthesized as radio-isotopomers.

Turning to `O=c1cc(-c2ccc(O)cc2)oc2cc(O)cc(O)c12` [apigenin], the “production of naringenin at stationary phase reduced by” value in assay [1] (1 mg/L apigenin) was found to be 14%. Also, the naringenin production decline entry in assay [1] (3 mg/L apigenin) is “approximately 60%”; in assay [1] (10 mg/L apigenin), roughly 85%.
`O=C(O)/C=C/c1ccc(O)cc1` [p-coumaric acid] returned a growth rate in the assay with E. coli BL21 Star of 0.18 h⁻¹.
With `COc1ccc([C@@H]2CC(=O)c3c(O)cc(O)cc3O2)cc1O` [hesperetin], the “reduction to the corresponding flavan-4-ol” value in the assay with A. andraeanum DFR is “not”.
`O=C1C[C@@H](c2ccc(O)cc2)Oc2cc(O)cc(O)c21` [naringenin]: the Specific activity in [2] came to 0 pkatal/mg; in assay [3], 0.4 pkatal/mg; in assay [4] it was 0.5 pkatal/mg; in the assay on Recombinant DFR I. nil, 0.3 pkatal/mg; in [6], 0 pkatal/mg; in assay [7], 0 pkatal/mg. In addition, the Specific activity in [8] was 0.7 pkatal/mg. The “final dry cell weight concentration” value in assay [5] (1 mM naringenin in minimal medium, after 13 h cell growth) turned out to be 0.492 mg/mL. Also, the “reduction in the final dry cell weight” value in [5] (1 mM naringenin vs control, 13 h) amounted to 16%. Also, the “maximum specific growth rate” value in [5] (1 mM naringenin, M9 minimal medium) amounted to 0.14 h⁻¹. Besides, in [5] (1 mM naringenin, after 13 h of growth), the “OD600 (final cell mass)” value is 1.0.
`O=C1c2c(O)cc(O)cc2O[C@H](c2ccc(O)c(O)c2)[C@H]1O` [DHQ, dihydroquercetin]: the Specific activity in assay [2] was found to be 1.3 pkatal/mg; in assay [3], 1.0 pkatal/mg; in assay [4] it was 1.2 pkatal/mg; in the assay on Recombinant DFR I. nil it was 1.3 pkatal/mg; in assay [6] it was 1.3 pkatal/mg; in [7] it was 1.2 pkatal/mg. The Specific activity in assay [8] turned out to be 1.4 pkatal/mg.
On to `O=C1c2c(O)cc(O)cc2O[C@H](c2cc(O)c(O)c(O)c2)[C@H]1O` [DHM, dihydromyricetin], for which the Specific activity was found to be 1.2 pkatal/mg in [2]; 1.3 pkatal/mg in assay [3]; 1.4 pkatal/mg in [4]; 1.5 pkatal/mg in the assay with Recombinant DFR I. nil; 1.0 pkatal/mg in assay [6]; 1.5 pkatal/mg in [7]. In addition, the Specific activity in [8] is 1.4 pkatal/mg.
On to `COc1cc(OC)c2c(c1)OC(c1ccccc1)CC2=O` (stereo not shown) [5,7-dimethoxyflavanone], for which the “reduction to the corresponding flavan-4-ol” value in the assay with A. andraeanum DFR is reported as “not”.
For `O=C1CC(c2ccccc2)Oc2ccccc21` (stereo not shown) [flavanone], the “reduction to the corresponding flavan-4-ol” value with A. andraeanum DFR was “able to reduce”.
As to `O=C1c2c(O)cc(O)cc2O[C@H](c2ccc(O)cc2)[C@H]1O` [DHK, dihydrokaempferol], the Specific activity in [2] is on record as 0 pkatal/mg; in assay [3], 0.4 pkatal/mg; in [4], 14 pkatal/mg; in the assay with Recombinant DFR I. nil, 0.3 pkatal/mg; in assay [6] it was 0.002 pkatal/mg; in assay [7], 0 pkatal/mg. Besides, the Specific activity in [8] stood at 21 pkatal/mg.
On to `O=C1C[C@@H](c2ccc(O)c(O)c2)Oc2cc(O)cc(O)c21` [ERI, eriodictyol], for which the Specific activity in assay [2] amounted to 0.6 pkatal/mg; in [3], 0.7 pkatal/mg; in assay [4], 0.6 pkatal/mg; with Recombinant DFR I. nil, 0.6 pkatal/mg; in [6] it was 0.6 pkatal/mg; in [7], 0.6 pkatal/mg. Further, the Specific activity in [8] came out at 0.8 pkatal/mg.
